The subject of test [1] is human NRAS mutant melanoma cell lines. Briefly: 72 hours drug combination, cell density by IncuCyte, synergy by Combenefit with Loewe method. In kind it is cell-based. The settings on record: for synergy with MEKi (trametinib): WM1361A and WM1366 cells, 72 hours.
Description: FIG. 10A-10B: Cas9 expressed clone WM1361A-iCas9 #1 (FIG. 10A), and WM1366-iCas9 #11 (FIG. 10B) cells were treated for 72 hours as indicated with GSK2334470 and trametinib and analyzed for cell density by IncuCyte. Synergy graphs were generated utilizing Combenefit Software with Loewe method. Data are represented as the mean from three biological independent experiments.
FIG. 11A: WM1361A, WM1366, SK-MEL-30 and SK-MEL-173 cells were treated for 72 hours as indicated with GSK2334470 and PD0325901 and analyzed for cell density by IncuCyte. Synergy graphs were generated utilizing Combenefit Software with Loewe method. Data are represented as the mean from three biological independent experiments. FIG. 11B: WM1361A, WM1366, SK-MEL-30 or SK-MEL-173 cells were treated with GSK2334470 (PDPK1i) and PD0325901 (PD901) alone or in combination (Comb) at the indicated concentrations for 7 days. Cell growth was monitored by IncuCyte every 2 hours. Data are represented as the mean±SEM of three biological independent experiments. p values were calculated with an unpaired two-tailed t test. n.s., not significant.
FIG. 16A: WM1361A and WM1366 cells were treated for 72 hours with indicated inhibitors and analyzed for cell density by IncuCyte. Synergy graphs were generated utilizing Combenefit Software with Loewe method. Data are represented as the mean from three biological independent experiments.
Human WM1361A and WM1366 melanoma cell lines were cultured in MCDB153 (Sigma) with 2% FBS, 20% Leibowitz L-15 medium, and 5 μg/mL insulin (WM medium). Human SK-MEL-30 and SK-MEL-173 melanoma cell lines were cultured in RPMI-1640 with 10% FBS. […] All cells were cultured at 37° C. in a humidified atmosphere containing 5% CO2. […] Cell lines were STR analyzed, confirmed for NRAS/Nras mutation, and tested to be mycoplasma-free during experiments. For cell proliferation and drug response, cells were monitored by IncuCyte® (Essen Bioscience, Ann Arbor, MI) every 2 hours.
Another test deals with NRAS mutant melanoma. The note with it: Phase III, NRAS mutant melanoma patients; cited from earlier work.
Test [2] relates to mouse Nras mutant melanoma cell lines. Briefly: 72 hours drug combination, cell density by IncuCyte, synergy by Combenefit with Loewe method. In kind it is cell-based. The note with it: two mouse lines (1007 and 1014), 3-day treatment. On the procedure:
FIG. 2A: NRAS mutant melanoma cell line WM1361A, WM1366, SK-MEL-30, SK-MEL-173, 1007 and 1014 were treated for 72 hours as indicated with GSK2334470 and trametinib and analyzed for cell density by IncuCyte. Synergy graphs were generated utilizing Combenefit Software with Loewe method. Data are represented as the mean from three biological independent experiments. FIG. 2B: WM1361A, WM1366, SK-MEL-30 or SK-MEL-173 cells were treated with GSK2334470 (PDPK1i) and trametinib (tram) alone or in combination (comb) at the indicated concentrations for 7 days. Cell growth was monitored by IncuCyte every 2 hours. Media were replaced twice with drugs during culture. Data are represented as the mean±SEM of three biological independent experiments. p values were calculated with an unpaired two-tailed t test. n.s., not significant.
To further analyze synergistic effects, the growth response of a panel of several NRAS mutant cells to titrated PDPK1i (GSK2334470) and MEKi (trametinib) combinations was assessed.
Human WM1361A and WM1366 melanoma cell lines were cultured in MCDB153 (Sigma) with 2% FBS, 20% Leibowitz L-15 medium, and 5 μg/mL insulin (WM medium). […] Cell lines were STR analyzed, confirmed for NRAS/Nras mutation, and tested to be mycoplasma-free during experiments. For cell proliferation and drug response, cells were monitored by IncuCyte® (Essen Bioscience, Ann Arbor, MI) every 2 hours.

The subject of a further test is WM1361A-iCas9 #1 cells. As to the kind of experiment: Growth inhibition by single agents or combined inhibitors for 3 days, Bliss independence model. In kind it is cell-based, human. The procedure:
FIGS. 1A-1H: CRISPR screen identifies PDPK1, in accordance with some embodiments. FIG. 1A: Workflow of the CRISPR-Cas9 screen for genes that are essential for cell survival or act as regulators of trametinib (MEKi) sensitivity and resistance in NRAS mutant melanoma WM1361A-iCas9 #1 cells. FIGS. 1B-1D: WM1361A-iCas9 #1 cells were transduced with the Guide-it CRISPR Genome-Wide sgRNA Library. After 3 days, mCherry positive cells were determined by FACS analysis (FIG. 1). On the 24th day post infection, the cells were treated with 20 nM trametinib for further 14 days (FIG. 1C) or 0.01-0.02 nM trametinib for further 28 days (FIG. 1D). The top enriched or depleted sgRNAs targeted genes are shown. FIG. 1E, The top depleted sgRNAs targeted genes before trametinib treatment. FIG. 1F: WM1361A-iCas9 #1 cells were treated with single agents or combined inhibitors for 3 days. The growth inhibition was shown as observed inhibition (left), or was calculated as Bliss independence model (middle). The synergistic or antagonist effects (right) were calculated as Observed inhibition %−Expected inhibition %. […]
The present study further analyzed druggable essential genes with high STARS scores (>2.14 of NRAS) in WM1361A-iCas9 cells which were also identified as therapeutic targets with high priority scores (>30) in NRAS mutant melanoma SK-MEL-2 cells in a published database. […]

Take `COc1ccc(-c2ccc3c(N4CCOC[C@@H]4C)nc(N4CCOC[C@@H]4C)nc3n2)cc1CO` [AZD8055]: the “synergy with MEKi (trametinib)” value in test [1] is “reduced synergy and even antagonistic effects”.

Take `Cn1cnc2c(F)c(Nc3ccc(Br)cc3F)c(C(=O)NOCCO)cc21` [Binimetinib, 5-((4-bromo-2-fluorophenyl)amino)-4-fluoro-N-(2-hydroxyethoxy)-1-methyl-1H-benzo[d]imidazole-6-carboxamide]: in the test with NRAS mutant melanoma, the “progression-free survival over standard chemotherapy (dacarbazine)” value is given as “modest advantage”. `Cc1nc(-c2cn3c(n2)-c2ccc(-c4cnn(C(C)(C)C(N)=O)c4)cc2OCC3)n(C(C)C)n1` [GDC-0032]: in test [1], the “synergy with MEKi (trametinib)” value is “synergy with trametinib comparable to those with PDPK1i”. Take `CNc1nc(-c2ccc3c(N)n[nH]c3c2)cc(N2C[C@@H](C(=O)NC3CCCCC3)CC[C@H]2C)n1` [GSK2334470, (3S,6R)-1-[6-(3-Amino-1H-indazol-6-yl)-2-(methylamino)-4-pyrimidinyl]-N-cyclohexyl-6-methyl-3-piperidinecarboxamide]: the “synergistic inhibition of cell viability, PDPK1i (GSK2334470) and MEKi (trametinib) combinations” value in test [2] was “Synergistic inhibition”; in test [1] (two Cas9-expressed cell lines and four parental human lines (WM1361A, WM1366, SK-MEL-30, SK-MEL-173), 3-day treatment) it was “Synergistic inhibition”. Further, the “synergy with MEKi (trametinib) on growth inhibition” value with WM1361A-iCas9 #1 cells is “synergistic”. With `Cl.Cl.NC1(c2ccc(-c3nc4ccn5c(=O)[nH]nc5c4cc3-c3ccccc3)cc2)CCC1` [MK-2206 2HCl], the “synergy with MEKi (trametinib)” value in test [1] is “reduced synergy and even antagonistic effects”.

(Values after patent US20240382484A1, “COMPOSITION FOR TREATING, PREVENTING, OR AMELIORATING MELANOMA AND METHOD THEREOF” (Thomas Jefferson University, priority 2021, published 2024).)
